≈ marks a conversion by molar mass, not a printed value.
Tests used:
Format in all cases: functional
Staphylococcus aureus [1] = experiment: Antibacterial activity against Staphylococcus aureus ATCC 29213
Staphylococcus aureus [2] = experiment: Antibacterial activity against methicillin, oxacillin, and tetracycline-resistant and vancomycin and linezolid-susceptible Staphylococcus aureus ATCC 27660 expressing mecA
Bacillus licheniformis = experiment: Antibacterial activity against Bacillus licheniformis ATCC 12759
Enterococcus faecalis [3] = experiment: Antibacterial activity against Enterococcus faecalis 201
[4] = test system: Staphylococcus epidermidis; experiment: Antibacterial activity against Staphylococcus epidermidis ATCC 35547
Bacillus cereus = experiment: Antibacterial activity against Bacillus cereus ATCC 13061
Staphylococcus aureus [5] = experiment: Antibacterial activity against ciprofloxacin, gentamicin, oxacillin, penicillin, and linezolid-resistant Staphylococcus aureus NRS119 expressing mecA
Staphylococcus aureus [6] = experiment: Antibacterial activity against ciprofloxacin, gentamicin, oxacillin, penicillin, and linezolid-resistant Staphylococcus aureus NRS120 expressing mecA
Enterococcus faecalis [7] = experiment: Antibacterial activity against Enterococcus faecalis ATCC 29212
[8] = test system: Staphylococcus haemolyticus; experiment: Antibacterial activity against Staphylococcus haemolyticus ATCC 29970
Enterococcus faecalis [9] = experiment: Antibacterial activity against vancomycin-resistant Enterococcus faecalis 99
Staphylococcus aureus [10] = experiment: Antibacterial activity against vancomycin-resistant Staphylococcus aureus VRS1
Enterococcus faecium [11] = experiment: Antibacterial activity against vancomycin-resistant Enterococcus faecium 106
Staphylococcus aureus [12] = experiment: Antibacterial activity against methicillin, oxacillin, and tetracycline-resistant and vancomycin and linezolid-susceptible Staphylococcus aureus NRS100 COL expressing mecA
Enterococcus faecium [13] = experiment: Antibacterial activity against Vancomycin-susceptible Enterococcus faecium 119-39A
Enterococcus faecium [14] = experiment: Antibacterial activity against vancomycin-resistant Enterococcus faecium C68
Staphylococcus aureus [15] = experiment: Antibacterial activity against vancomycin-resistant Staphylococcus aureus VRS2

Row | MIC (Staphylococcus aureus [1]) | Structure (SMILES) | further results
1 | ≥ 128 µg/mL | Cn1c2ccccc2c2cc(-c3noc(-c4ccc(O)cc4)n3)ccc21 | –
2 | 8 µg/mL (≈ 27.5 µM) | Cn1ccc2cc(-c3noc(-c4ccc(O)cc4)n3)ccc21 | –
3 | ≥ 128 µg/mL | O=C1OCc2cc(-c3noc(-c4ccc(O)cc4)n3)ccc21 | –
4 | 128 µg/mL (≈ 348 µM) | Oc1ccc(-c2nc(-c3ccc4c(ccn4Cc4ccccc4)c3)no2)cc1 | –
5 | 2 µg/mL (≈ 5.49 µM) | Oc1ccc(-c2nc(-c3ccc(Sc4ccc(F)cc4)cc3)no2)cc1 | –
6 | 8 µg/mL (≈ 18 µM) | O=[N+]([O-])c1cc(-c2noc(-c3ccc(O)cc3)n2)ccc1Oc1ccc(C(F)(F)F)cc1 | –
7 | ≥ 128 µg/mL | Oc1ccc(-c2nc(-c3ccc4c(c3)C=CCO4)no2)cc1 | –
8 | ≥ 500 µg/mL | COc1ccc(-c2noc(-c3ccc(O)cc3)n2)cc1OC | –
9 | ≥ 128 µg/mL | Oc1ccc(-c2nc(-c3ccc(N(Cc4ccccc4)c4ccccc4)cc3)no2)cc1 | –
10 | 4 µg/mL (≈ 12.1 µM) | Oc1ccc(-c2nc(-c3ccc(Nc4ccccc4)cc3)no2)cc1 | –
11 | 8 µg/mL (≈ 19.2 µM) | Oc1ccc(-c2nc(-c3ccc(Oc4ccc(C(F)(F)F)cc4)c(F)c3)no2)cc1 | –
12 | ≥ 128 µg/mL | O=C(c1ccccc1)c1ccc(-c2noc(-c3ccc(O)cc3)n2)cc1 | –
13 | ≥ 128 µg/mL | Oc1ccc(-c2nc(N3CCN(c4ccccc4)CC3)no2)cc1 | –
14 | ≥ 500 µg/mL | O=C(Nc1ccc(-c2noc(-c3ccc(O)cc3)n2)cc1)c1ccccc1 | –
15 | ≥ 128 µg/mL | Clc1c[nH]nc1-c1nc(-c2ccc3c(c2)OCO3)no1 | –
16 | ≥ 128 µg/mL | Nc1cc(-c2noc(-c3ccc(O)cc3)n2)ccc1Oc1ccc(C(F)(F)F)cc1 | –
17 | 16 µg/mL (≈ 43.8 µM) | Clc1cccc(N2CCN(c3noc(-c4n[nH]cc4Cl)n3)CC2)c1 | –
18 | ≥ 128 µg/mL | [N-]=[N+]=Nc1cc(Oc2ccc(C(F)(F)F)cc2)ccc1-c1noc(-c2ccc(O)cc2)n1 | –
19 | ≥ 128 µg/mL | Clc1cc(Cl)cc(N2CCN(c3noc(-c4ccc5[nH]ccc5c4)n3)CC2)c1 | –
20 | 32 µg/mL (≈ 80.5 µM) | Oc1ccc(-c2nc(-c3ccc(Nc4ccc(C(F)(F)F)cc4)cc3)no2)cc1 | –
21 | ≥ 128 µg/mL | CN1CCN(c2ccc(-c3noc(-c4ccc(O)cc4)n3)cc2)CC1 | –
22 | ≥ 128 µg/mL | Clc1cccc(N2CCN(c3noc(-c4ccc5[nH]ccc5c4)n3)CC2)c1 | –
23 | 8 µg/mL (≈ 27.5 µM) | Cn1ccc2ccc(-c3noc(-c4ccc(O)cc4)n3)cc21 | –
24 | ≥ 128 µg/mL | Oc1ccc(-c2nc(-c3ccc(Nc4ccc(F)cc4)cc3)no2)cc1 | –
25 | ≥ 128 µg/mL | Oc1ccc(-c2nc(-c3ccc4sccc4c3)no2)cc1 | –
26 | ≥ 128 µg/mL | O=C1OCc2cc(-c3noc(-c4n[nH]cc4Cl)n3)ccc21 | –
27 | ≥ 128 µg/mL | Oc1ccc(-c2nc(-c3ccc(Cc4ccccc4)cc3)no2)cc1 | –

Row | Structure (SMILES) | MIC (Staphylococcus aureus [1]) | further results
28 | Oc1ccc(-c2nc(-c3ccc(Oc4ccc(C(F)(F)F)cc4)cc3Cl)no2)cc1 | 2 µg/mL (≈ 4.62 µM) | MIC (Staphylococcus aureus [2]): 8 µg/mL (≈ 18.5 µM); MIC (Bacillus licheniformis): 2 µg/mL (≈ 4.62 µM); MIC (Enterococcus faecalis [3]): 4 µg/mL (≈ 9.24 µM); MIC [4]: 4 µg/mL (≈ 9.24 µM); MIC (Bacillus cereus): 4 µg/mL (≈ 9.24 µM); MIC (Staphylococcus aureus [5]): 4 µg/mL (≈ 9.24 µM); MIC (Staphylococcus aureus [6]): 4 µg/mL (≈ 9.24 µM); MIC (Enterococcus faecalis [7]): 4 µg/mL (≈ 9.24 µM); MIC [8]: 4 µg/mL (≈ 9.24 µM); MIC (Enterococcus faecalis [9]): 4 µg/mL (≈ 9.24 µM); MIC (Staphylococcus aureus [10]): 2 µg/mL (≈ 4.62 µM); MIC (Enterococcus faecium [11]): 4 µg/mL (≈ 9.24 µM); MIC (Staphylococcus aureus [12]): 8 µg/mL (≈ 18.5 µM); MIC (Enterococcus faecium [13]): 4 µg/mL (≈ 9.24 µM); MIC (Enterococcus faecium [14]): 4 µg/mL (≈ 9.24 µM); MIC (Staphylococcus aureus [15]): 2 µg/mL (≈ 4.62 µM)

Source: ChEMBL document CHEMBL3627682, “Exploration of the structure-activity relationship of 1,2,4-oxadiazole antibiotics” (2015)
